In patent US6180666A, “Use of gallic acid esters to increase bioavailability of orally administered pharmaceutical compounds” (priority 1999, dated 2001):
Read-outs that look alike come from different tables or passages of the source.

Experiments:
CYP3A [1] = experiment: Inhibition of CYP3A-mediated metabolism of amiodarone, buspirone and nifedipine in human liver microsomes (Example 2)
Method: (§1) Microsomal pellets were prepared from the homogenate using standard differential centrifugation procedures (Guengerich, Analysis and characterization of enzymes in Principles and Methods of Toxicology, A. W. Hayes (ed.), Raven Press, New York. pp. 777-814 (1989)) and were stored at -80° C. in Tris-acetate buffer, pH 7.4, containing 20% w/v glycerol. Microsomes were diluted in 100 mM potassium phosphate buffer, pH 7.4, for use in metabolic incubations. Microsomal protein and CYP content of the human liver microsomes were determined using methods of Bradford (Bradford, M. M. A rapid and sensitive method for the quantitation of microgram quantities of protein utilizing the principles of protein-dye binding. Anal. Biochem. 72:248-254 (1976)) and Omura and Sato (Omura, T. et. al. The carbon monoxide-binding pigment of liver microsomes II. Solubilization, purification and properties. J. Biol. Chem. 239:2370-2378 (1964)), respectively.
(§2) The ability of propyl gallate at various concentrations to inhibit metabolism for three representative drugs through inhibition of the cytochrome P450 mechanism was tested. Human liver microsomes were prepared and each of three drugs, amiodarone, buspirone, or nifedipine, were incubated with the microsomes in the presence of propyl gallate or a known inhibitor of CYP3A metabolism. Metabolism in the presence of propyl gallate or known CYP3A inhibitor was compared to a control treated only with the solvent in which the inhibitor was dissolved.
(§3) Clin. Pharmacol. Ther. 64: 655-60 (1998)) by human liver microsomes was tested. The microsomes were prepared as in Example 1.
(§4) The amiodarone was present in a concentration of 100 μM, the buspirone was in a concentration of 25 μM, and the nifedipine was present in a concentration of 25 μM. The propyl gallate was tested with each of these drugs at concentrations of 25, 50, and 100 μM.
(§5) The drug and optionally the inhibitor were preincubated with the microsomes at 1 nmol CYP/ml and 1 mM DETAPAC in 100 mM phosphate buffer, pH 7.4 for 5 minutes at 37° C. After the preincubation, metabolic reactions were started by the addition of 1 mM NADPH. Samples were taken at 1, 2, and 3 minutes after the start of the reaction and analyzed by HPLC. Disappearance of substrate and/or formation of metabolite were quantitated by comparison to standard curves.
(§6) The metabolism rates (nmol/ml/min) are the mean±standard deviation of three measurements.
(§7) ^a Formation rate of N-desethylamiodarone metabolite (nmol/ml/min)
(§8) ^b Buspirone disappearance (nmol/ml/min)
(§9) ^c Formation of nifedipine oxidation product
(§10) 2,6-dimethyl-4-(2-nitrophenyl)-3,5-pyridinedicarboxylic acid, dimethyl

[2] = Joint FAO/WHO Expert Committee, cited from earlier work; for temporary acceptable daily intake: 1/200 of no observed effect level, 90 day feeding studies in rats
CYP3A [3] = molecular target: T1, CYP3A (Homo sapiens, UniProt P08684); experiment: Inhibition of CYP3A-mediated nifedipine metabolism in human liver microsomes by gallic acid esters (Example 1); details: for activity at 10 µM / activity at 25 µM / activity at 50 µM / activity at 100 µM / activity at 500 µM: read-out: Relative Nifedipine Oxidation Rate (± S.D.)
Method: The known CYP3A substrate nifedipine (Gonzalez, F. J., et al., Human P45OPCN1: sequence, chromosome localization, and direct evidence through cDNA expression that P45OPCN1 is nifedipine oxidase, DNA, 2:79-86 (1988)) was used as a test substrate for evaluating the potential of various gallic acid esters to inhibit CYP3A metabolism in a human liver microsome study.
as §1
In the experiments, 100 μM nifedipine and either 5 μl of a solution of one of the gallic acid esters (at a concentration indicated in Table 1) or 5 μl of solvent alone (control) were preincubated along with 0.1 mg/ml of the human liver microsomal proteins and 1 mM diethylenetriarninepentaacetic acid (DETAPAC) in 100 mM phosphate buffer, pH 7.4, for 5 minutes at 37°0 C. Metabolic reactions were started by addition of reduced β-nicotinamide adenine dinucleotide phosphate (NADPH) to give a final concentration of 1 mM and a final volume of 0.5 ml. Metabolic reactions were stopped after 3 minutes by vortex mixing with 0.2 ml of an extraction solvent of (94:6) acetonitrile:glacial acetic acid. Protein was precipitated by centrifugation (3000 rpm×10 minutes) and supernatants were analyzed for nifedipine and its oxidation product 2,6-dimethyl-4-(2-nitrophenyl)-3,5-pyridinedicarboxylic acid dimethyl ester by High Performance Liquid Chromatography (HPLC).
All experiments were conducted in triplicate and compared to incubations carried out without NADPH or without substrate. The data are the mean±standard deviation of three measurements.
^a Substrate and inhibitor were dissolved in acetonitrile except for
lauryl gallate which required methanol as vehicle.
^b Inhibition constant Ki determinations utilized 10, 20, 50 and
100 μM nifedipine substrate concentrations and experiments were run in
duplicate. Ki values were determined by regression analysis of rate
data using SigmaPlot V4.OS software (SPSS Inc., San Rafael, California).

CYP3A [4] = molecular target: T1, CYP3A; experiment: Inhibition of CYP3A-mediated metabolism of amiodarone, buspirone and nifedipine in human liver microsomes (Example 2)
Method: as §1, §2, §3, §4, §5, §6, §7, §8, §9, §10

[5] = inhibitor 100 μM, amiodarone 100 μM
[6] = read-out: Buspirone metabolism rate, % control
[7] = read-out: Nifedipine metabolism rate, % control

T1 sequence (P08684 2-503 limits assumed): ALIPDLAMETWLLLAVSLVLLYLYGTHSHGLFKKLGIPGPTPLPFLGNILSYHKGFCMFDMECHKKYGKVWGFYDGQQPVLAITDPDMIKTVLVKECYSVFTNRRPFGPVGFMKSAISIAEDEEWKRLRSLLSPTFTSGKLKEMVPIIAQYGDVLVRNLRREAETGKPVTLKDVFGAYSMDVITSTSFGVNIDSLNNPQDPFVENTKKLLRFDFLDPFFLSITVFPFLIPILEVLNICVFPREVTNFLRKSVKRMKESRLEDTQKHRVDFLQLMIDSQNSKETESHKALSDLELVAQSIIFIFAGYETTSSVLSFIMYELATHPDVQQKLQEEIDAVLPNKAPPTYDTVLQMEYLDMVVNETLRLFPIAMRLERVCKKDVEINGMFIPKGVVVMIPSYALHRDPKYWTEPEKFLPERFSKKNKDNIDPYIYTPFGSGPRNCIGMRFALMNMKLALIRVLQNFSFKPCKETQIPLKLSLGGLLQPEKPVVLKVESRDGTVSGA

Row | Compound | Mean ± SD metabolism rate, amiodarone (formation rate of N-desethylamiodarone) (CYP3A [1]; [5]) [nmol/mL/min] | temporary acceptable daily intake [2] | activity at 10 µM (CYP3A [3]) [%] | activity at 25 µM (CYP3A [3]) [%] | activity at 50 µM (CYP3A [3]) [%] | activity at 100 µM (CYP3A [3]) [%] | activity at 500 µM (CYP3A [3]) [%] | Ki (CYP3A [3]) [µM] | further results
1 | CC[C@H]1OC(=O)[C@H](C)[C@@H](O[C@H]2C[C@@](C)(OC)[C@@H](O)[C@H](C)O2)[C@H](C)[C@@H](O[C@@H]2O[C@H](C)C[C@H](N(C)C)[C@H]2O)[C@](C)(O)C[C@@H](C)C(=O)[C@H](C)[C@@H](O)[C@]1(C)O [Erythromycin, reference compound] | 0.84 ± 0.07 |  |  |  |  |  |  |  | 
2 | CC(=O)N1CCN(c2ccc(OCC3COC(Cn4ccnc4)(c4ccc(Cl)cc4Cl)O3)cc2)CC1 (centres unmarked) [Ketoconazole, reference compound] |  |  |  |  |  |  |  |  | Amiodarone metabolism rate, % control (CYP3A [1]; inhibitor 1 μM, amiodarone 100 μM): 4 % control
3 | CCCCCCCCCCCCOC(=O)c1cc(O)c(O)c(O)c1 [Lauryl gallate, lauryl gallate] |  | 0-0.05 mg/kg body weight | 61 | 31 | 12.6 | 6.4 |  |  | 
4 | COC(=O)c1cc(O)c(O)c(O)c1 [Methyl gallate, methyl gallate] |  |  |  |  |  | 53 | 16 |  | 
5 | CCCCCCCCOC(=O)c1cc(O)c(O)c(O)c1 [Octyl gallate, octyl gallate] |  | 0-0.1 mg/kg body weight | 44 | 17.5 | 4.9 | 1.1 |  | 5.2 ± 0.2 | Inhibition of CYP3A-mediated metabolism (in words) (CYP3A [3]): especially good inhibitor of the metabolism at relatively low concentrations
6 | CCCOC(=O)c1cc(O)c(O)c(O)c1 [Propyl gallate, 3,4,5-trihydroxybenzoic acid, n-propyl ester] | 0.32 ± 0.03 |  |  |  | 59 | 34 | 6.1 | 64 ± 2 | remaining activity at 25 µM (CYP3A [4]; [6]): 65%; remaining activity at 50 µM (CYP3A [4]; [6]): 42%; remaining activity at 100 µM (CYP3A [4]; [6]): 29%; remaining activity at 25 µM (CYP3A [4]; [7]): 82%; remaining activity at 50 µM (CYP3A [4]; [7]): 54%; remaining activity at 100 µM (CYP3A [4]; [7]): 33%; Inhibition of CYP3A-mediated metabolism (in words) (CYP3A [1]): effective inhibitor of CYP3A-mediated metabolism; Inhibition of drug metabolism compared with known CYP3A inhibitors (in words) (CYP3A [1]): better at inhibiting drug metabolism than the established CYP3A inhibitors diltiazem, erythromycin, and verapamil; Mean ± SD metabolism rate, amiodarone (formation rate of N-desethylamiodarone) (CYP3A [1]; inhibitor 25 μM, amiodarone 100 μM): 0.94 ± 0.02 nmol/mL/min; Mean ± SD metabolism rate, amiodarone (formation rate of N-desethylamiodarone) (CYP3A [1]; inhibitor 50 μM, amiodarone 100 μM): 0.55 ± 0.02 nmol/mL/min; Amiodarone metabolism rate, % control (CYP3A [1]; microsomes, 25 µM): 49 % control; Amiodarone metabolism rate, % control (CYP3A [1]; microsomes, 50 µM): 28 % control; Amiodarone metabolism rate, % control (CYP3A [1]; microsomes, 100 µM): 17 % control; acceptable daily intake ([2]; 1/100 of no observed effect level, 90 day feeding study in rats): 0 to 1.4 mg/kg/day
